Values of other authors, collected in patent publication US20250288577A1, “METHODS OF TREATING A VIRUS INFECTION AND METHODS OF INHIBITING VIRAL REPLICATION” (CORNELL UNIVERSITY, priority 2022, published 2025).

Tests used:
influenza A = details: reported in literature
Adenovirus = details: reported in literature

## O=C(Cc1cccc(OC(F)(F)F)c1)Nc1ccc(CCCCc2nnc(NC(=O)Cc3ccccn3)s2)nn1 [CB839, Telaglenastat]
Influenza A
  block of influenza A: block
Adenovirus
  block of Adenovirus: block
